Assay results taken from patent publication US8613914B2, “Peptidomimetic sulfamide compounds and antiviral uses thereof” (Novartis AG, priority 2009, dated 2013).

Target: HCV NS3-4A serine protease (full-length NS3-4A protein) (Hepatitis C virus genotype 1a (isolate 1) (HCV), UniProt P26664)
Assay: HCV NS3-4A protease assay
Assay type: biochemical, HCV genotype 1a
Details: strain HCV-1, fluorogenic peptide substrate, read-out: Protease assay Ex. 12 IC50
Method: The inhibitory activity of certain compounds of Table A against HCV NS3-4A serine protease is determined in a homogenous assay using the full-length NS3-4A protein (genotype 1a, strain HCV-1) and a commercially available internally-quenched fluorogenic peptide substrate as described by Taliani, M., et al. 1996 Anal. Biochem. 240:60-67, which is incorporated by reference in its entirety.

Sequence of HCV NS3-4A serine protease (full-length NS3-4A protein) (P26664 1027-1657): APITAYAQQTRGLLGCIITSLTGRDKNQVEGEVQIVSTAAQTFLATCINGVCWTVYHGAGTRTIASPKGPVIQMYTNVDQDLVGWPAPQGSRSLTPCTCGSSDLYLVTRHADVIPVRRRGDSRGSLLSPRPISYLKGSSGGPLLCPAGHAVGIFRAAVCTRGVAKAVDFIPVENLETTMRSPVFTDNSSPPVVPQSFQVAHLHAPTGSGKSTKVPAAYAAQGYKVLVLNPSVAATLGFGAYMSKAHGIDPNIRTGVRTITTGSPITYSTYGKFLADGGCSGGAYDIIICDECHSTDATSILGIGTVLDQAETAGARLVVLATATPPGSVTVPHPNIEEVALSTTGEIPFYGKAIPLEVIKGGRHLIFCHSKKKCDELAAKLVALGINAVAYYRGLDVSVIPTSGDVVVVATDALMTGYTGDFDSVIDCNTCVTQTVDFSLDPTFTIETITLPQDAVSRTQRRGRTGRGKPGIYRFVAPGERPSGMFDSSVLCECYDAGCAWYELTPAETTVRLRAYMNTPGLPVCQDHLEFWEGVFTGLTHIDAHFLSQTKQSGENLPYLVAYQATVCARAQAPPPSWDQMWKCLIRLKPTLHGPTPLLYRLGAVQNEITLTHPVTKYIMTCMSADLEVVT
Sequence of HCV NS3-4A serine protease (full-length NS3-4A protein) (P26664 1658-1711 partner): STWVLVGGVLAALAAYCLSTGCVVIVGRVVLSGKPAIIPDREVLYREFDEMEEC

`C=C[C@@H]1C[C@]1(NC(=O)[C@@H]1C[C@@]2(CN1C(=O)[C@@H](NC(=O)[C@@H](NC(=O)[C@@H]1CCCN1C(C)C)C1CCCCC1)C(C)(C)C)C(C)(C)C21CCC1)C(=O)NS(=O)(=O)N(CC)CC` [Compound 62, (5R,8S)-7-[(2S)-2-{[(2S)-2-cyclohexyl-2-({[(2S)-1-isopropylpyrrolidin-2-yl]carbonyl}amino)acetyl]amino}-3,3-dimethylbutanoyl]-N-[(1R,2S)-1-{[(diethylamino)sulfonyl]carbamoyl}-2-vinylcyclopropyl]-10,10-dimethyl-7-azadispiro[3.0.4.1]decane-8-carboxamide] and `C=C[C@@H]1C[C@]1(NC(=O)[C@@H]1C[C@@]2(CN1C(=O)[C@@H](NC(=O)[C@@H](NC(=O)[C@@H]1CCCCN1C(C)C)C(C)C)C(C)(C)C)C(C)(C)C21CCC1)C(=O)NS(=O)(=O)N(CC)CC` [Compound 122, (5R,8S)-N-[(1R,2S)-1-{[(diethylamino)sulfonyl]carbamoyl}-2-vinylcyclopropyl]-7-[(2S)-2-{[(2S)-2-({[(2S)-1-isopropylpiperidin-2-yl]carbonyl}amino)-3-methylbutanoyl]amino}-3,3-dimethylbutanoyl]-10,10-dimethyl-7-azadispiro[3.0.4.1]decane-8-carboxamide] are within 1.5-fold of each other in IC50: 1 nM for the first, 1.4 nM for the second.

Going from `C=C[C@@H]1C[C@]1(NC(=O)[C@@H]1C[C@@]2(CN1C(=O)[C@@H](NC(=O)[C@@H](NC(=O)[C@@H]1CCCCN1C1CCCC1)C(C)(C)C)C(C)(C)C)C(C)(C)C21CCC1)C(=O)NS(=O)(=O)N1CCCC1` [Compound 31, (5R,8S)-7-[(2S)-2-{[(2S)-2-({[(2S)-1-cyclopentylpiperidin-2-yl]carbonyl}amino)-3,3-dimethylbutanoyl]amino}-3,3-dimethylbutanoyl]-10,10-dimethyl-N-{(1R,2S)-1-[(pyrrolidin-1-ylsulfonyl)carbamoyl]-2-vinylcyclopropyl}-7-azadispiro[3.0.4.1]decane-8-carboxamide] to `C=C[C@@H]1C[C@]1(NC(=O)[C@@H]1C[C@@]2(CN1C(=O)[C@@H](NC(=O)[C@@H](NC(=O)[C@@H]1CCCCN1CCF)C(C)(C)C)C(C)(C)C)C(C)(C)C21CCC1)C(=O)NS(=O)(=O)N1CCCC1` [Compound 20, (5R,8S)-7-[(2S)-2-{[(2S)-2-({[(2S)-1-(2-fluoroethyl)piperidin-2-yl]carbonyl}amino)-3,3-dimethylbutanoyl]amino}-3,3-dimethylbutanoyl]-10,10-dimethyl-N-{(1R,2S)-1-[(pyrrolidin-1-ylsulfonyl)carbamoyl]-2-vinylcyclopropyl}-7-azadispiro[3.0.4.1]decane-8-carboxamide], the IC50 rises from 8 nM to 70 nM (8.8-fold).

Compared with `C=C[C@@H]1C[C@]1(NC(=O)C1C[C@@]2(CN1C(=O)[C@@H](NC(=O)C1CCCNC1=O)C(C)(C)C)C(C)(C)C21CCC1)C(=O)NS(=O)(=O)N1CCCC1` (stereo partly drawn) [Compound 78, (5R)-7-[(2S)-3,3-dimethyl-2-{[(2-oxopiperidin-3-yl)carbonyl]amino}butanoyl]-10,10-dimethyl-N-{(1R,2S)-1-[(pyrrolidin-1-ylsulfonyl)carbamoyl]-2-vinylcyclopropyl}-7-azadispiro[3.0.4.1]decane-8-carboxamide], `C=C[C@@H]1C[C@]1(NC(=O)[C@@H]1C[C@@]2(CN1C(=O)[C@@H](NC(=O)[C@@H](NC(=O)[C@@H]1CCCN1C(C)C)C(C)(C)C)C(C)(C)C)C(C)(C)C21CCC1)C(=O)NS(=O)(=O)N1CCCC1` [Compound 11, (5R,8S)-7-[(2S)-2-{[(2S)-2-({[(2S)-1-isopropylpyrrolidin-2-yl]carbonyl}amino)-3,3-dimethylbutanoyl]amino}-3,3-dimethylbutanoyl]-10,10-dimethyl-N-{(1R,2S)-1-[(pyrrolidin-1-ylsulfonyl)carbamoyl]-2-vinylcyclopropyl}-7-azadispiro[3.0.4.1]decane-8-carboxamide] is 32-fold lower in IC50: 650 nM for the first, 20 nM for the second.

First: C=C[C@@H]1C[C@]1(NC(=O)[C@@H]1C[C@@]2(CN1C(=O)[C@@H](NC(=O)[C@@H](NC(=O)c1cnccn1)C1CCCCC1)C(C)(C)C)C(C)(C)C21CCC1)C(=O)NS(=O)(=O)N(CC)CC [Compound 173, (5R,8S)-7-[(2S)-2-({(2S)-2-cyclohexyl-2-[(pyrazin-2-ylcarbonyl)amino]acetyl}amino)-3,3-dimethylbutanoyl]-N-[(1R,2S)-1-{[(diethylamino)sulfonyl]carbamoyl}-2-vinylcyclopropyl]-10,10-dimethyl-7-azadispiro[3.0.4.1]decane-8-carboxamide]
Second: C=C[C@@H]1C[C@]1(NC(=O)[C@@H]1C[C@@]2(CN1C(=O)[C@@H](NC(=O)[C@@H](NC(=O)[C@@H]1CCCN1CC)C1(C)CCCCC1)C(C)(C)C)C(C)(C)C21CCC1)C(=O)NS(=O)(=O)N(CC)CC [Compound 134, (5R,8S)-N-[(1R,2S)-1-{[(diethylamino)sulfonyl]carbamoyl}-2-vinylcyclopropyl]-7-[(2S)-2-{[(2S)-2-({[(2S)-1-ethylpyrrolidin-2-yl]carbonyl}amino)-2-(1-methylcyclohexyl)acetyl]amino}-3,3-dimethylbutanoyl]-10,10-dimethyl-7-azadispiro[3.0.4.1]decane-8-carboxamide]
The IC50 of the first is 1.7-fold lower: 3 nM for the first, 5 nM for the second. The first is the more potent here.

First: C=C[C@@H]1C[C@]1(NC(=O)[C@@H]1C[C@@]2(CN1C(=O)[C@@H](NC(=O)[C@@H](NC(=O)[C@@H]1CCCN1C(C)C)C1CCCC1)C(C)(C)C)C(C)(C)C21CCC1)C(=O)NS(=O)(=O)N1CCCC1 [Compound 59, (5R,8S)-7-[(2S)-2-{[(2S)-2-cyclopentyl-2-({[(2S)-1-isopropylpyrrolidin-2-yl]carbonyl}amino)acetyl]amino}-3,3-dimethylbutanoyl]-10,10-dimethyl-N-{(1R,2S)-1-[(pyrrolidin-1-ylsulfonyl)carbamoyl]-2-vinylcyclopropyl}-7-azadispiro[3.0.4.1]decane-8-carboxamide]
Second: C=C[C@@H]1C[C@]1(NC(=O)[C@@H]1C[C@@]2(CN1C(=O)[C@@H](NC(=O)[C@@H](NC(=O)[C@@H]1CCCCN1C(C)C)C1CCCCC1)C(C)(C)C)C(C)(C)C21CCC1)C(=O)NS(=O)(=O)N1CC[C@@H](F)C1 [Compound 45, (5R,8S)-7-[(2S)-2-{[(2S)-2-cyclohexyl-2-({[(2S)-1-isopropylpiperidin-2-yl]carbonyl}amino)acetyl]amino}-3,3-dimethylbutanoyl]-N-[(1R,2S)-1-({[(3R)-3-fluoropyrrolidin-1-yl]sulfonyl}carbamoyl)-2-vinylcyclopropyl]-10,10-dimethyl-7-azadispiro[3.0.4.1]decane-8-carboxamide]
The IC50 of the first is 3.5-fold higher: 3.5 nM for the first, 1 nM for the second. The second is the more potent here.

Compared with `C=C[C@@H]1C[C@]1(NC(=O)[C@@H]1C[C@@]2(CN1C(=O)[C@@H](NC(=O)[C@@H](NC(=O)[C@@H]1CCCN1CC)C1CCCCC1)C(C)(C)C)C(C)(C)C21CCC1)C(=O)NS(=O)(=O)N1CCCC1` [Compound 39, (5R,8S)-7-[(2S)-2-{[(2S)-2-cyclohexyl-2-({[(2S)-1-ethylpyrrolidin-2-yl]carbonyl}amino)acetyl]amino}-3,3-dimethylbutanoyl]-10,10-dimethyl-N-{(1R,2S)-1-[(pyrrolidin-1-ylsulfonyl)carbamoyl]-2-vinylcyclopropyl}-7-azadispiro[3.0.4.1]decane-8-carboxamide], `C=C[C@@H]1C[C@]1(NC(=O)[C@@H]1C[C@@]2(CN1C(=O)[C@@H](NC(=O)[C@@H](NC(=O)[C@@H]1CCCCN1CC)C1CCCCC1)C1CCOCC1)C(C)(C)C21CCC1)C(=O)NS(=O)(=O)N(CC)CC` [Compound 85, (5R,8S)-7-[(2S)-2-{[(2S)-2-cyclohexyl-2-({[(2S)-1-ethylpiperidin-2-yl]carbonyl}amino)acetyl]amino}-2-(tetrahydro-2H-pyran-4-yl)acetyl]-N-[(1R,2S)-1-{[(diethylamino)sulfonyl]carbamoyl}-2-vinylcyclopropyl]-10,10-dimethyl-7-azadispiro[3.0.4.1]decane-8-carboxamide] is 1.8-fold higher in IC50: 2.5 nM for the first, 4.5 nM for the second. The first is the more potent here.

Going from `C=C[C@@H]1C[C@]1(NC(=O)[C@@H]1C[C@@]2(CN1C(=O)[C@@H](NC(=O)[C@@H](NC(=O)OC(C)(C)C)C(C)(C)C)C(C)(C)C)C(C)(C)C21CCC1)C(=O)NS(=O)(=O)N1CCOCC1` [Compound 5, tert-butyl [(1S)-1-{[(1S)-1-{[(5R,8S)-10,10-dimethyl-8-({(1R,2S)-1-[(morpholin-4-ylsulfonyl)carbamoyl]-2-vinylcyclopropyl}carbamoyl)-7-azadispiro[3.0.4.1]dec-7-yl]carbonyl}-2,2-dimethylpropyl]carbamoyl}-2,2-dimethylpropyl]carbamate] to `C=C[C@@H]1C[C@]1(NC(=O)[C@@H]1C[C@@]2(CN1C(=O)[C@@H](NC(=O)[C@@H](NC(=O)[C@@H]1CCCCN1C(C)C)C1CCOCC1)C1(C)CCOCC1)C(C)(C)C21CCC1)C(=O)NS(=O)(=O)N1CCCC1` [Compound 127, (5R,8S)-7-[(2S)-2-{[(2S)-2-({[(2S)-1-isopropylpiperidin-2-yl]carbonyl}amino)-2-(tetrahydro-2H-pyran-4-yl)acetyl]amino}-2-(4-methyltetrahydro-2H-pyran-4-yl)acetyl]-10,10-dimethyl-N-{(1R,2S)-1-[(pyrrolidin-1-ylsulfonyl)carbamoyl]-2-vinylcyclopropyl}-7-azadispiro[3.0.4.1]decane-8-carboxamide], the IC50 falls from 6650 nM to 4 nM (1700-fold). The second is the more potent here.

`C=C[C@@H]1C[C@]1(NC(=O)[C@@H]1C[C@@]2(CN1C(=O)[C@@H](NC(=O)[C@@H](NC(=O)[C@@H]1CCCCN1C(C)C)C1(C)CCCCC1)C1(C)CCCCC1)C(C)(C)C21CCC1)C(=O)NS(=O)(=O)N(CC)CC` [Compound 160, (5R,8S)-N-[(1R,2S)-1-{[(diethylamino)sulfonyl]carbamoyl}-2-vinylcyclopropyl]-7-[(2S)-2-{[(2S)-2-({[(2S)-1-isopropylpiperidin-2-yl]carbonyl}amino)-2-(1-methylcyclohexyl)acetyl]amino}-2-(1-methylcyclohexyl)acetyl]-10,10-dimethyl-7-azadispiro[3.0.4.1]decane-8-carboxamide] gave an IC50 of 3 nM.
